Test system: Hepatitis C virus
Experiment: Antiviral activity against Hepatitis C virus infected in human Huh7.5.1 cells after 72 hrs by focus formation assay
Assay type: functional, cell-based, Hepacivirus hominis
Conditions: Huh-7.5.1, 72 h

Work on `C=CC[C@]1(C(=O)c2ccccc2)C=CCN(Cc2ccccc2)[C@H]1CC#N` yielded an IC50 of 15.4 µM.

`N#CC[C@H]1C(C(=O)c2ccccc2)=CC=CN1Cc1ccccc1` was tested, and the IC50 was 10.8 µM.
